# Reference: patent publication US20140206678A1, “INHIBITORS OF MTOR KINASE AS ANTI -VIRAL AGENT” (KADMON CORPORATION, LLC, priority 2011, published 2014)
# What was measured:
# MCMV = MCMV replication in mouse embryo fibroblasts, TCID50; type: cell-based, murine cytomegalovirus; conditions: Torin1 250 nM
# 4EBP1 = 4EBP1 phosphorylation in HSV-1-infected MEFs (Western blot); type: cell-based, mouse; conditions: 8 hpi, 3 PFU/cell
# Protocol: FIG. 8. Rapamycin-resistant mTOR activity is required for lytic replication by representative alpha- and gamma-herpesviruses. (A) Confluent serum-starved MEFs were infected at a multiplicity of 0.05 PFU/cell with HSV-1 or γHV68. The amount of virus in cell-free supernatants was determined by the TCID50 method at 72 hpi for HSV-1 (left) and at 6 days post infection for γHV68 (right). Black bars represent vehicle-treated samples (N) (DMSO), gray bars represent rapamycin-treated samples (R) (20 nM), and white bars represent Torin1-treated samples (T) (250 nM). The error bars represent the standard errors of the means from at least two independent experiments. (B) Confluent MEF monolayers were infected with HSV-1 at a multiplicity of 3 PFU/cell. Infected cell lysates were harvested at 8 hpi, and equal amounts of protein were analyzed by Western blotting. (C) WT or 4EBP1-null MEFs were infected with HSV-1 at a multiplicity of 0.05 PFU/cell. The amount of cell-free virus present in the supernatant at 72 hpi was quantified by the TCID50 method. The error bars represent the standard errors of the means from two independent experiments.
# UL99 mRNA = test: UL99 late transcript level by qPCR in HCMV-infected fibroblasts; type: cell-based, human cytomegalovirus; conditions: rapamycin 20 nM, Torin1 250 nM; 3 PFU/cell
# [1] = system: HCMV proteins IE1, pUL44, pUL99; test: Western blot of HCMV proteins in infected fibroblasts; type: cell-based, human cytomegalovirus; conditions: 6 to 96 hpi; rapamycin 20 nM, Torin1 250 nM; 3 PFU/cell
# Protocol: FIG. 2. […] Serum-starved confluent fibroblasts were infected with HCMV at a multiplicity of 3 PFU/cell. […] Control cultures received the vehicle in which Torin1 was dissolved (NT). At 2 hpi cells were harvested, and cell-associated viral DNA was quantified by real-time PCR analysis. Error bars represent the standard errors of the means from two independent experiments performed in duplicate. […] The level of IE1 was determined at 6 hpi by a Western blot assay using an IE1-specific monoclonal antibody. The image is representative of two independent experiments. […] The expression of a GFP marker gene present in the viral genome was monitored at 24 h after infection in the presence or absence of drug.
# FIG. 3. […] Cells were harvested at the indicated times, and the accumulation of the indicated proteins was analyzed by Western blotting. […] At the indicated times DNA was isolated, and viral DNA was quantified by qPCR. Equivalent amounts of DNA were analyzed for each sample, and the results are normalized to the level of actin DNA per sample. […] At the indicated times the amount of UL99 RNA was determined by qPCR, and the results are normalized to the amount of actin RNA in each sample. […]
# Antibodies to pUL99 have been described previously (Silva, et al. J. Virol. (2003) 77:10594-10605). In addition, accumulation of HCMV DNA was monitored following infection using the methods described above.
smiles,measurement,setting,value
CCC(=O)N1CCN(c2ccc(-n3c(=O)ccc4cnc5ccc(-c6cnc7ccccc7c6)cc5c43)cc2C(F)(F)F)CC1 [Torin1],MCMV replication,"MCMV; 4EBP1-null MEFs, rapamycin 20 nM, 6 days post infection",no longer capable of inhibiting
same,MCMV replication,MCMV; Akt1/Akt2-null MEFs,Torin-sensitive
same,MCMV replication,"MCMV; Rictor-null MEFs, 6 days post infection",effectively inhibited
same,MCMV replication,"MCMV; wild-type MEFs, rapamycin 20 nM, 0.05 PFU/cell",inhibited
same,phosphorylation of 4EBP1 during HSV-1 infection,4EBP1,inhibited
same,levels of UL99 mRNA,UL99 mRNA,decreased
same,accumulation of immediate-early protein IE1,[1],to a limited extent
same,accumulation of late protein pUL99,[1],dramatically reduced
